Experimental data: patent US20050020544A1, “Bicyclic CB2 cannabinoid receptor ligands” (priority 2002, published 2005)
Like-named read-outs stand apart in the source and are kept apart here.

Experiments:
human CB1 receptor = target: T1, human CB1 receptor (Homo sapiens, UniProt P21554); test: biochemical; assay type: binding
T1 construct: purchased Perkin Elmer/NEN; host or cells: HEK-293 cells, stably transfected (membranes)
Summary of the method: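 Displacement of [3H]CP55940 from membranes of HEK-293 cells stably expressing human CB1, in 50 mM Tris-HCl, 2.5 mM EDTA, 5 mM MgCl2, 1 mg/ml BSA, pH 7.4, 0.1% DMSO; 1.5 h at 30° C, then filtration.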

Male Sprague Dawley rats = test: Inflammatory pain: carrageenan paw edema in rats, thermal and mechanical stimuli; assay type: in vivo, rat; details: for ΔForce (tactile stimulus) / ΔLT (thermal stimulus): three hours
Summary of the method: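 Male Sprague Dawley rats (~200 g) with carrageenan-inflamed paw, tested before and 3 h after injection. Thermal withdrawal latency measured by Hargreaves plantar test at intensity 50, and mechanical threshold by dynamic plantar aesthesiometer. Values are inflamed minus non-inflamed paw differences at 0 and 3 h (ΔLT, ΔForce).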

[1] = tested on: TNF-α secretion from activated RAW 264.7 macrophages; test: Inhibition of TNF-α in LPS activated macrophages (ELISA); assay type: cell-based, mouse; details: for effect on TNF-α secretion: doses up to 20 μM
Source text: (§1) The technique used to quantify the amount of a given protein in a liquid sample, either tissue culture supernatant or body fluid, is based on Enzyme Linked ImmunoSorbent Assay (ELISA) methodology. Either commercially available or established in house, the assay is based on the capture of the protein of interest by specific antibodies bound to the bottom of an ELISA plate well. Unbound material is washed away, the captured protein is then exposed to a secondary antibody generally labeled with horseradish peroxidase (HRP) or alkaline phosphatase (ALP). Again the unbound material is washed away, the samples are then incubated with the appropriate substrate yielding a calorimetric reaction. The reaction is stopped and reading is performed in a spectrophotometer at the appropriate wavelength. Samples are tested at least in duplicate and the appropriate standard curve, consisting of serial dilutions of the recombinant target protein, is incorporated on each plate. Concentration of the protein in the sample is calculated from the standard curve.
(§2) RAW 264.7 macrophages, a mouse cell line (ATCC # TIB-71), were grown in Dulbecco's modified Eagle's medium (DMEM) with 4 mM L-glutamine adjusted to contain 1.5 g/L sodium bicarbonate, 4.5 g/L glucose, and 10% heat inactivated fetal bovine serum. Cells were grown in tissue culture flasks and seeded at appropriate density into 24 wells tissue culture plates. 0.5×10^6 Raw cells in one milliliter were stimulated with 2 μg/ml Lipopolysaccharide E. coli 055:B5 (DIFCO Laboratories). The mouse macrophages were pre-treated for one hour with controls or 10 μM of bicyclic CB2 ligands and later on activated with LPS. Dexamethasone was used as a positive control at 50 nM. Supernatant was collected 4 hours (for PGE2) and 24 hours (for IL-1β and TNF-α) after activation, and the levels of the inflammatory agent under study were determined by ELISA, as previously described. Inhibition was calculated versus vehicle treated cells.
The activation of the macrophages is performed as previously described. The levels of TNF-α are measured in an ELISA assay as previously described. Inhibition is calculated versus vehicle treated cells.

human CB2 receptor = human CB2 receptor (Homo sapiens, UniProt P34972); test: biochemical; assay type: binding; design: purchased Perkin Elmer/NEN; host or cells: CHO cells, stably transfected (membranes); details: for IC50: displacement of [3H]WIN 55212-2, hCB2 CHO membranes; for CB2/CB1 affinity ratio: IC50 CB1/IC50 CB2
Sequence of human CB2 receptor (P34972 whole entry): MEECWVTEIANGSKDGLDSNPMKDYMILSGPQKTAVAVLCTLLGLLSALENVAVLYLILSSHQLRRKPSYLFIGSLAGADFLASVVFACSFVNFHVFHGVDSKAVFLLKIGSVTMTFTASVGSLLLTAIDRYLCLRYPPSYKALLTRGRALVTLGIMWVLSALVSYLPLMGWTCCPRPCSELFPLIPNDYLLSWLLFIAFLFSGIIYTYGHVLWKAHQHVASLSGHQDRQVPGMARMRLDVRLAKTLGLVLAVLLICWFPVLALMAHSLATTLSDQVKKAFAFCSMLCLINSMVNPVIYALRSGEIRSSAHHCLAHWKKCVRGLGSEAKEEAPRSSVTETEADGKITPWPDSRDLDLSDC
Summary of the method: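 Displacement of 0.8 nM [^3H]WIN 55212-2 from hCB2-transfected CHO membranes (25 μg protein) was measured in HEPES buffer pH 7.4 with MgCl2, EDTA and BSA, 40 min at 30 °C. Non-specific binding was defined with 10 μM CP 55940, then samples were filtered and β-counted. IC50 was extrapolated from log concentration vs % binding.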

[2] = tested on: PGE2 secretion from activated RAW 264.7 macrophages; test: Inhibition of PGE2 in LPS activated macrophages (ELISA); assay type: cell-based, mouse; details: 4 hours after activation, doses 1 μM to 20 μM
Source text: as §1, §2
The activation of the macrophages is performed as previously described. The levels of PGE2 are measured in an ELISA assay as previously described. Inhibition is calculated versus vehicle treated cells. […] Results are depicted in FIG. 2B.

[3] = displacement of [3H]CP55940, hCB1 HEK-293 membranes, read-out: CB1 IC50

T1 sequence (P21554 whole entry): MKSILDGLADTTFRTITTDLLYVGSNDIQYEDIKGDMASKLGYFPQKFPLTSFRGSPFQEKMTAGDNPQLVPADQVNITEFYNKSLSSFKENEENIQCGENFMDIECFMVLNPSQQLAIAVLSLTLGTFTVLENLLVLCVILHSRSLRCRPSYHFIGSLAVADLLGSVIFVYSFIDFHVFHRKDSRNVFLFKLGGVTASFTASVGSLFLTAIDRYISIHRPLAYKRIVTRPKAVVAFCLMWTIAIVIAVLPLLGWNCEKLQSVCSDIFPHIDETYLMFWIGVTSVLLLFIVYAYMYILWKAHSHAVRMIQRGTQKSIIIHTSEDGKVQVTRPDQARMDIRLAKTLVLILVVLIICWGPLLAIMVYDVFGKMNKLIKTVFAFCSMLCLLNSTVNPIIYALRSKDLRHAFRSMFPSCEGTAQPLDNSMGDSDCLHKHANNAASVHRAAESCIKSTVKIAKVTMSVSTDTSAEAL

SMILES	IC50 (human CB1 receptor; CB1 IC50, displacement of [3H]CP55940, hCB1 HEK-293 membranes)	IC50 (human CB1 receptor; [3])	ΔForce (tactile stimulus) (Male Sprague Dawley rats; 8 mg/kg i.p.)	ΔLT (thermal stimulus) (Male Sprague Dawley rats; 8 mg/kg i.p.)	reduction of TNF-α secretion ([1]; 10 μM)	IC50 ([1]; Mus musculus, RAW264.7)	IC50 to CB2, fold lower than its (+) enantiomer (human CB2 receptor; compound A versus (+) enantiomer)	IC50 (human CB2 receptor)	IC50 ([2]; Mus musculus, RAW264.7)	ΔForce (tactile stimulus) (Male Sprague Dawley rats; 2 mg/kg i.p.)	effect on TNF-α secretion [1]	CB2/CB1 affinity ratio (human CB2 receptor)	IC50 [2]	reversal of analgesic activity against thermal and mechanical stimuli by antagonists (Male Sprague Dawley rats; 5 mg/kg i.p. SR141716A or SR144528, 15 minutes before carrageenan and compound)	ΔForce (tactile stimulus) (Male Sprague Dawley rats; 10 mg/kg i.p.)	ΔLT (thermal stimulus) (Male Sprague Dawley rats; 10 mg/kg i.p.)
CCCCCCC(C)(C)c1cc(OC)c(C2C=C(CO)C3CC2C3(C)C)c(OC)c1 (single isomer, unassigned; (+)) [HU-308, (+) {4-[4-(1,1-dimethylheptyl)-2,6-dimethoxy-phenyl]-6,6-dimethyl-bicyclo[3.1.1]hept-2-en-2-yl}-methanol, reference compound]	3600 nM															
CCCCCCC(C)(C)c1cc(O)c(C2CC(=O)C3CC2C3(C)C)c(O)c1 (single isomer, unassigned; (-)) [Compound A, (−)-4-[4-(1,1-Dimethyl-heptyl)2,6-dihydroxy-phenyl]-6,6-dimethyl-bicyclo[3.1.1)heptan-2-one]		27.6 nM	2 g	1.5 s	53%	10000 nM	10 fold	1 nM	9000 nM							
CCCCC(C)(C)c1cc(O)c(C2CC(=O)C3CC2C3(C)C)c(O)c1 (single isomer, unassigned; (-)) [Compound L, (−)-4-[4(1,1-Dimethyl-pentyl)-2,6-dihydroxy-phenyl]-6,6-dimethyl-bicyclo[3.1.1]heptan-2-one]		446 nM						3.8 nM	7000 nM	11 g	none of them did significantly affect TNF-α secretion	117				
CCCCC(C)(C)c1cc(O)c(C2CC(=O)C3CC2C3(C)C)c(OC(=O)CCC(=O)O)c1 (single isomer, unassigned; (-)) [Compound Y, (−)-4-{4-[1,1-Dimethyl-pentyl]-2-succinate-6-hydroxy-phenyl}-6,6-dimethyl-bicyclo[3.1.1]heptan-2-one]		315 nM						7.4 nM			none of them did significantly affect TNF-α secretion	42	7000 nM			
CCCCCCC(C)(C)c1cc(O)c([C@H]2CC(=O)[C@H]3C[C@@H]2C3(C)C)c(OC(=O)CCC(=O)O)c1 [Compound R, (−)-4-{4-[1,1-Dimethyl-heptyl]-2-succinate-6-hydroxy-phenyl}-6,6-dimethyl-bicyclo[3.1.1]heptan-2-one]		41 nM						1.2 nM	9000 nM		none of them did significantly affect TNF-α secretion	34		not reversed by any of the antagonists	4 g	0 s
